The NIST ThermoML archive (doi:10.1016/j.jct.2017.03.006)

Assay: xn = mol fraction of the nth substance listed
Settings: Liquid; for viscosity: Concentric cylinders viscometry; for mass density: Vibrating tube method

Cc1ccc(C)c(C)c1 [1,2,4-trimethylbenzene] + CCCCO
Settings | mass density [kg/m3] | viscosity [mPa·s]
323.15 K, 100 kPa, x2 = 0.7975 | – | 1.027
323.15 K, 100 kPa, x2 = 0.9131 | – | 1.22
333.15 K, 100 kPa, x2 = 0 | 843.6 | 0.562
333.15 K, 100 kPa, x2 = 0.1002 | – | 0.552
333.15 K, 100 kPa, x2 = 0.1005 | 836.9 | –
333.15 K, 100 kPa, x2 = 0.2261 | 830.2 | –
333.15 K, 100 kPa, x2 = 0.2327 | – | 0.564
333.15 K, 100 kPa, x2 = 0.2999 | 826.1 | –
333.15 K, 100 kPa, x2 = 0.3 | – | 0.582
333.15 K, 100 kPa, x2 = 0.3966 | 820.6 | –
333.15 K, 100 kPa, x2 = 0.3969 | – | 0.6
333.15 K, 100 kPa, x2 = 0.5289 | 812.8 | –
333.15 K, 100 kPa, x2 = 0.53 | – | 0.652
333.15 K, 100 kPa, x2 = 0.6367 | 805.8 | –
333.15 K, 100 kPa, x2 = 0.637 | – | 0.711
333.15 K, 100 kPa, x2 = 0.7249 | 799.8 | –
333.15 K, 100 kPa, x2 = 0.7975 | – | 0.853
333.15 K, 100 kPa, x2 = 0.7977 | 794.5 | –
333.15 K, 100 kPa, x2 = 0.9131 | 785.6 | 0.996
333.15 K, 1000 kPa, x2 = 0 | 844.4 | –
333.15 K, 1000 kPa, x2 = 0.1005 | 837.7 | –
333.15 K, 1000 kPa, x2 = 0.2261 | 831 | –
333.15 K, 1000 kPa, x2 = 0.2999 | 826.9 | –
333.15 K, 1000 kPa, x2 = 0.3966 | 821.4 | –
333.15 K, 1000 kPa, x2 = 0.5289 | 813.6 | –
333.15 K, 1000 kPa, x2 = 0.6367 | 806.6 | –
333.15 K, 1000 kPa, x2 = 0.7249 | 800.7 | –
333.15 K, 1000 kPa, x2 = 0.7977 | 795.3 | –
333.15 K, 1000 kPa, x2 = 0.9131 | 786.4 | –
333.15 K, 5000 kPa, x2 = 0 | 847.6 | –
333.15 K, 5000 kPa, x2 = 0.1005 | 841 | –
333.15 K, 5000 kPa, x2 = 0.2261 | 834.4 | –
333.15 K, 5000 kPa, x2 = 0.2999 | 830.3 | –
333.15 K, 5000 kPa, x2 = 0.3966 | 824.8 | –
333.15 K, 5000 kPa, x2 = 0.5289 | 817.1 | –
333.15 K, 5000 kPa, x2 = 0.6367 | 810.1 | –
333.15 K, 5000 kPa, x2 = 0.7249 | 804.2 | –
333.15 K, 5000 kPa, x2 = 0.7977 | 798.8 | –
333.15 K, 5000 kPa, x2 = 0.9131 | 789.9 | –
333.15 K, 10000 kPa, x2 = 0 | 851.4 | –
333.15 K, 10000 kPa, x2 = 0.1005 | 844.9 | –
333.15 K, 10000 kPa, x2 = 0.2261 | 838.3 | –
333.15 K, 10000 kPa, x2 = 0.2999 | 834.2 | –
333.15 K, 10000 kPa, x2 = 0.3966 | 828.8 | –
333.15 K, 10000 kPa, x2 = 0.5289 | 821.1 | –
333.15 K, 10000 kPa, x2 = 0.6367 | 814.2 | –
333.15 K, 10000 kPa, x2 = 0.7249 | 808.3 | –
333.15 K, 10000 kPa, x2 = 0.7977 | 803 | –
333.15 K, 10000 kPa, x2 = 0.9131 | 794.1 | –
333.15 K, 20000 kPa, x2 = 0 | 858.6 | –
333.15 K, 20000 kPa, x2 = 0.1005 | 852.4 | –
333.15 K, 20000 kPa, x2 = 0.2261 | 845.8 | –
333.15 K, 20000 kPa, x2 = 0.2999 | 841.8 | –
333.15 K, 20000 kPa, x2 = 0.3966 | 836.4 | –
333.15 K, 20000 kPa, x2 = 0.5289 | 828.7 | –
333.15 K, 20000 kPa, x2 = 0.6367 | 821.9 | –
333.15 K, 20000 kPa, x2 = 0.7249 | 816 | –
333.15 K, 20000 kPa, x2 = 0.7977 | 810.7 | –
333.15 K, 20000 kPa, x2 = 0.9131 | 801.9 | –
333.15 K, 30000 kPa, x2 = 0 | 865.3 | –
333.15 K, 30000 kPa, x2 = 0.1005 | 859.2 | –
333.15 K, 30000 kPa, x2 = 0.2261 | 852.8 | –
333.15 K, 30000 kPa, x2 = 0.2999 | 848.7 | –
333.15 K, 30000 kPa, x2 = 0.3966 | 843.4 | –
333.15 K, 30000 kPa, x2 = 0.5289 | 835.7 | –
333.15 K, 30000 kPa, x2 = 0.6367 | 828.9 | –
333.15 K, 30000 kPa, x2 = 0.7249 | 823.1 | –
333.15 K, 30000 kPa, x2 = 0.7977 | 817.8 | –
333.15 K, 30000 kPa, x2 = 0.9131 | 809.1 | –
333.15 K, 40000 kPa, x2 = 0 | 871.6 | –
333.15 K, 40000 kPa, x2 = 0.1005 | 865.5 | –
333.15 K, 40000 kPa, x2 = 0.2261 | 859.2 | –
333.15 K, 40000 kPa, x2 = 0.2999 | 855.2 | –
333.15 K, 40000 kPa, x2 = 0.3966 | 849.8 | –
333.15 K, 40000 kPa, x2 = 0.5289 | 842.2 | –
333.15 K, 40000 kPa, x2 = 0.6367 | 835.5 | –
333.15 K, 40000 kPa, x2 = 0.7249 | 829.6 | –
333.15 K, 40000 kPa, x2 = 0.7977 | 824.4 | –
333.15 K, 40000 kPa, x2 = 0.9131 | 815.6 | –
333.15 K, 50000 kPa, x2 = 0 | 877.4 | –
333.15 K, 50000 kPa, x2 = 0.1005 | 871.4 | –
333.15 K, 50000 kPa, x2 = 0.2261 | 865.1 | –
333.15 K, 50000 kPa, x2 = 0.2999 | 861.1 | –
333.15 K, 50000 kPa, x2 = 0.3966 | 855.9 | –
333.15 K, 50000 kPa, x2 = 0.5289 | 848.3 | –
333.15 K, 50000 kPa, x2 = 0.6367 | 841.6 | –
333.15 K, 50000 kPa, x2 = 0.7249 | 835.7 | –
333.15 K, 50000 kPa, x2 = 0.7977 | 830.5 | –
333.15 K, 50000 kPa, x2 = 0.9131 | 821.7 | –
333.15 K, 60000 kPa, x2 = 0 | 883 | –
333.15 K, 60000 kPa, x2 = 0.1005 | 877.1 | –
333.15 K, 60000 kPa, x2 = 0.2261 | 870.8 | –
333.15 K, 60000 kPa, x2 = 0.2999 | 866.8 | –
333.15 K, 60000 kPa, x2 = 0.3966 | 861.6 | –
333.15 K, 60000 kPa, x2 = 0.5289 | 854 | –
333.15 K, 60000 kPa, x2 = 0.6367 | 847.3 | –
333.15 K, 60000 kPa, x2 = 0.7249 | 841.4 | –
333.15 K, 60000 kPa, x2 = 0.7977 | 836.3 | –
333.15 K, 60000 kPa, x2 = 0.9131 | 827.5 | –
333.15 K, 70000 kPa, x2 = 0 | 888.2 | –
333.15 K, 70000 kPa, x2 = 0.1005 | 882.3 | –
333.15 K, 70000 kPa, x2 = 0.2261 | 876.2 | –
333.15 K, 70000 kPa, x2 = 0.2999 | 872.2 | –
333.15 K, 70000 kPa, x2 = 0.3966 | 866.9 | –
333.15 K, 70000 kPa, x2 = 0.5289 | 859.5 | –
333.15 K, 70000 kPa, x2 = 0.6367 | 852.7 | –
333.15 K, 70000 kPa, x2 = 0.7249 | 846.9 | –
333.15 K, 70000 kPa, x2 = 0.7977 | 841.7 | –
333.15 K, 70000 kPa, x2 = 0.9131 | 832.9 | –
333.15 K, 80000 kPa, x2 = 0 | 893.2 | –
333.15 K, 80000 kPa, x2 = 0.1005 | 887.4 | –
333.15 K, 80000 kPa, x2 = 0.2261 | 881.2 | –
333.15 K, 80000 kPa, x2 = 0.2999 | 877.2 | –
333.15 K, 80000 kPa, x2 = 0.3966 | 872 | –
333.15 K, 80000 kPa, x2 = 0.5289 | 864.6 | –
333.15 K, 80000 kPa, x2 = 0.6367 | 857.8 | –
333.15 K, 80000 kPa, x2 = 0.7249 | 852 | –
333.15 K, 80000 kPa, x2 = 0.7977 | 846.8 | –
333.15 K, 80000 kPa, x2 = 0.9131 | 838 | –
333.15 K, 90000 kPa, x2 = 0 | 898 | –
333.15 K, 90000 kPa, x2 = 0.1005 | 892.2 | –
333.15 K, 90000 kPa, x2 = 0.2261 | 886 | –
333.15 K, 90000 kPa, x2 = 0.2999 | 882.1 | –
333.15 K, 90000 kPa, x2 = 0.3966 | 876.9 | –
333.15 K, 90000 kPa, x2 = 0.5289 | 869.4 | –
333.15 K, 90000 kPa, x2 = 0.6367 | 862.7 | –
333.15 K, 90000 kPa, x2 = 0.7249 | 856.9 | –
333.15 K, 90000 kPa, x2 = 0.7977 | 851.7 | –
333.15 K, 90000 kPa, x2 = 0.9131 | 842.9 | –
333.15 K, 100000 kPa, x2 = 0 | 902.5 | –
333.15 K, 100000 kPa, x2 = 0.1005 | 896.8 | –
333.15 K, 100000 kPa, x2 = 0.2261 | 890.7 | –
333.15 K, 100000 kPa, x2 = 0.2999 | 886.7 | –
333.15 K, 100000 kPa, x2 = 0.3966 | 881.5 | –
333.15 K, 100000 kPa, x2 = 0.5289 | 874.1 | –
333.15 K, 100000 kPa, x2 = 0.6367 | 867.4 | –
333.15 K, 100000 kPa, x2 = 0.7249 | 861.6 | –
333.15 K, 100000 kPa, x2 = 0.7977 | 856.4 | –
333.15 K, 100000 kPa, x2 = 0.9131 | 847.6 | –
333.15 K, 120000 kPa, x2 = 0 | 911.1 | –
333.15 K, 120000 kPa, x2 = 0.1005 | 905.4 | –
333.15 K, 120000 kPa, x2 = 0.2261 | 899.4 | –
333.15 K, 120000 kPa, x2 = 0.2999 | 895.4 | –
333.15 K, 120000 kPa, x2 = 0.3966 | 890.3 | –
333.15 K, 120000 kPa, x2 = 0.5289 | 882.8 | –
333.15 K, 120000 kPa, x2 = 0.6367 | 876.1 | –
333.15 K, 120000 kPa, x2 = 0.7249 | 870.3 | –
333.15 K, 120000 kPa, x2 = 0.7977 | 865.2 | –
333.15 K, 120000 kPa, x2 = 0.9131 | 856.4 | –
333.15 K, 140000 kPa, x2 = 0 | 919 | –
333.15 K, 140000 kPa, x2 = 0.1005 | 913.3 | –
333.15 K, 140000 kPa, x2 = 0.2261 | 907.6 | –
333.15 K, 140000 kPa, x2 = 0.2999 | 903.3 | –
333.15 K, 140000 kPa, x2 = 0.3966 | 898.3 | –
333.15 K, 140000 kPa, x2 = 0.5289 | 891 | –
333.15 K, 140000 kPa, x2 = 0.6367 | 884.3 | –
333.15 K, 140000 kPa, x2 = 0.7249 | 878.6 | –
333.15 K, 140000 kPa, x2 = 0.7977 | 873.5 | –
333.15 K, 140000 kPa, x2 = 0.9131 | 864.5 | –
